According to US20150289512A1, “METHOD FOR PROMOTING PLANT GROWTH” (SUMITOMO CHEMICAL COMPANY, LIMITED, priority 2012, published 2015):

Columns and labels:
Format in all cases: in vivo
[1] = test system: Rice (variety: Nipponbare); assay: Test Example 2: promotion of root growth by hydroponics of rice, 1 ppm; details: Oryza sativa, hydroponic solution containing the test compound at 1 ppm, average of 4 or 5 individuals, read-out: Relative value of length of seminal root (%-untreated control plot)
Method: (§1) Test for Evaluating Promotion of Root Growth by Hydroponics of Rice
(§2) Rice (variety: Nipponbare)
A DMSO solution, which contained one of the compounds 1, 3, 11, 12, 14, 15, 17, 21, 28, 30, 33, 34, 35, 36, 37, 38, 40, 41, 43, 44, 45, 46, 47, 49, 50, 51, 52, 53, 54, 55, 56, 61, 62, 63, 65, 67, 68, 69, 70, 73, 74, 75, 76, 77, 80, 82, 83, 85 and 86 of the present invention at a concentration of 10,000 ppm, was added to Hoagland hydroponic solution (Hoagland and Arnon, California Agricultural Experiment Station 1950 Circular 347 pp. 34) of ¼-fold concentration at a volume ratio of 1/10,000. In this manner, hydroponic solutions containing one of the compounds 1, 3, 11, 12, 14, 15, 17, 21, 28, 30, 33, 34, 35, 36, 37, 38, 40, 41, 43, 44, 45, 46, 47, 49, 50, 51, 52, 53, 54, 55, 56, 61, 62, 63, 65, 67, 68, 69, 70, 73, 74, 75, 76, 77, 80, 82, 83, 85 and 86 of the present invention at 1 ppm were prepared respectively. As an untreated control plot, a hydroponic solution obtained by adding DMSO to Hoagland hydroponic solution of ¼-fold concentration at a volume ratio of 1/10,000 was used. Rice seeds were soaked in a 1% aqueous sodium hypochlorite solution for 10 minutes, then soaked in a 70% ethanol solution for surface sterilization, and then washed with distilled water. The sterilized seeds were soaked in a hydroponic solution containing the test compound described above at 1 ppm and incubated in a dark place for 3 days at 28° C. to perform treatment for hastening germination.
(§3) Thereafter, 30 ml of hydroponic solution containing the test compound at 1 ppm was dispensed in a plastic tube (diameter of 20 mm×height of 113 mm) of which the side was covered with cardboard to block light. A float prepared using a styrene board and vinyl mesh was floated, and the rice seeds that had undergone the treatment for hastening germination were placed on the float on the surface of the hydroponic solution. The seeds were cultivated for 3 days at 26° C., an illuminance of 4,000 lux of the top surface of the tube, a humidity of 50%, and a day length of 16 hours.
The nursery plants of rice obtained after cultivation were measured in terms of the length of seminal root by using WinRHIZO system (manufactured by Regent Instruments Inc). For each test plot, an average of the measured values of the seminal root of 4 or 5 individuals was determined.

Nicotiana benthamiana [2] = assay: Test Example 5: growth promotion under low-temperature stress by hydroponics of Nicotiana benthamiana, 1 ppm; details: 1 ppm in medium, low-temperature stress 7 days at 1.5±1.0° C., green leaf area 3 days later, equation (1)
Method: (§4) Test for Evaluating Growth Promotion Under Low-Temperature Stress by Hydroponics of Nicotiana benthamiana
A DMSO solution, which contained one of the compounds 2, 4, 5, 6, 11, 12, 17, 20, 21, 28, 30, 34, 36, 37, 51, 52, 53, 55, 56, 58, 59, 60, 64, 65, 66, 68, 69, 70, 74, 77, 82, 83, 84, 86 and 87 of the present invention at a concentration of 1,000 ppm, was prepared. The DMSO solution of the compound of the present invention was added at a volume ratio of 1/1,000 to the Murashige•Scoog medium of a ½-fold concentration (a medium containing 2.3 g of mixed salts for the Murashige•Scoog medium (manufactured by Wako Pure Chemical Industries, Ltd.), 200 mg of Myo-inositol (manufactured by Sigma-Aldrich Co. LLC.), 2 mg of nicotinic acid (manufactured by Wako Pure Chemical Industries, Ltd.), 2 mg of pyridoxine hydrochloride (manufactured by Wako Pure Chemical Industries, Ltd.), 20 mg of thiamine hydrochloride (manufactured by Wako Pure Chemical Industries, Ltd.), 20 g of sucrose (manufactured by Wako Pure Chemical Industries, Ltd.), and 1 g of MES (manufactured by DOJINDO LABORATORIES) per 1 L of water and having pH adjusted to 5.8), thereby preparing a medium containing the compound of the present invention at a concentration of 1 ppm.
(§5) Seeds of Nicotiana benthamiana were seeded in the 5 μL of the medium and cultured overnight at 22° C. Thereafter, 45 μL of the medium containing the compound of the present invention at a concentration of 1 ppm was added thereto, and the seeds are cultured for 7 days at 22° C., an illuminance of 4,000 lux, and a day length of 16 hours, and the nursery plants raised from the Nicotiana benthamiana were treated with the compound. Moreover, instead of the above medium, a test plot, which was obtained by performing the same treatment by using a medium prepared by adding DMSO to the Murashige•Scoog medium of ½-fold concentration at a volume ratio of 1/1,000, was used as a control plot not treated with the compound.
(§6) The nursery plants of the Nicotiana benthamiana treated with the compound were subjected to low-temperature treatment by being cultivated for 7 days at 1.5±1.0° C., an illuminance of 2,000 lux, and a day length of 16 hours.
The nursery plants of the Nicotiana benthamiana having undergone the low-temperature stress treatment were cultured for 3 days at 22° C., an illuminance of 4,000 lux, and a day length of 16 hours. Thereafter, the area of green leaf was quantified by Scanalyzer HTS (manufactured by LemnaTec GmbH). Moreover, the value of the control plot not treated with the compound that had not yet been subjected to the low-temperature stress treatment was measured in the same manner. A value of a relative leaf area was calculated based on the following equation (1), and if the value of a relative leaf area was 5 or greater, the compound was evaluated to have a mitigating effect. As a result of the evaluation, it was confirmed that when the plant was treated with one of the compounds 2, 4, 5, 6, 11, 12, 17, 20, 21, 28, 30, 34, 36, 37, 51, 52, 53, 55, 56, 58, 59, 60, 64, 65, 66, 68, 69, 70, 74, 77, 82, 83, 84, 86 and 87 of the present invention at 1 ppm, the value of a relative leaf area was 5 or greater, compared to the area of green leaf of the control plot not treated with compound. Accordingly, it was confirmed that the treatment using the compound of the present invention brings about a growth promotion effect.
(§7) Relative leaf area=100*(a green area of a plot treated with the compound of the present invention−a green area of a control plot not treated with the compound of the present invention)/(a green area of a control plot not treated with the compound of the present invention that has not yet been subjected to low-temperature stress treatment−a green area of a control plot not treated with the compound of the present invention) Equation (1): […]

[3] = test system: Rice (variety: Nipponbare); assay: Test Example 1: promotion of root growth by hydroponics of rice, 10 ppm; details: Oryza sativa, hydroponic solution containing the test compound at 10 ppm, average of 4 or 5 individuals, read-out: Relative value of length of seminal root (%-untreated control plot)
Method: as §1, §2
Rice seeds were soaked in a 1% aqueous sodium hypochlorite solution for 10 minutes, then soaked in a 70% ethanol solution for surface sterilization, and then washed with distilled water. The sterilized seeds were soaked in a hydroponic solution containing the test compound described above at 10 ppm and incubated in a dark place for 3 days at 28° C. to perform treatment for hastening germination.
as §3, with “at 10” for “at 1”
The nursery plants of rice obtained after culturing were measured in terms of the length of seminal root by using WinRHIZO system (manufactured by Regent Instruments Inc). For each test plot, an average of the measured values of the seminal root of 4 or 5 individuals was determined.

Nicotiana benthamiana [4] = assay: Test Example 4: growth promotion under low-temperature stress by hydroponics of Nicotiana benthamiana, 10 ppm; details: 10 ppm in medium, low-temperature stress 7 days at 1.5±1.0° C., green leaf area 3 days later, equation (1)
Method: as §4
A DMSO solution, which contained one of the compounds 1, 8, 9, 13, 18, 19, 22, 23, 29, 32, 33, 34, 39, 40, 41, 43, 44, 51, 53, 54, 55, 56, 58, 60, 62, 63, 64, 65, 67, 69, 71, 73, 74, 75, 77, 79, 82, 83 and 86 of the present invention at a concentration of 10,000 ppm, was prepared. The DMSO solution of the compound of the present invention was added at a volume ratio of 1/1,000 to the Murashige•Scoog medium of a ½-fold concentration (a medium containing 2.3 g of mixed salts for the Murashige•Scoog medium (manufactured by Wako Pure Chemical Industries, Ltd.), 200 mg of Myo-inositol (manufactured by Sigma-Aldrich Co. LLC.), 2 mg of nicotinic acid (manufactured by Wako Pure Chemical Industries, Ltd.), 2 mg of pyridoxine hydrochloride (manufactured by Wako Pure Chemical Industries, Ltd.), 20 mg of thiamine hydrochloride (manufactured by Wako Pure Chemical Industries, Ltd.), 20 g of sucrose (manufactured by Wako Pure Chemical Industries, Ltd.), and 1 g of MES (manufactured by DOJINDO LABORATORIES) per 1 L of water and having pH adjusted to 5.8), thereby preparing a medium containing the compound of the present invention at a concentration of 10 ppm.
as §5, with “concentration of 10 ppm was” for “concentration of 1 ppm was”, “seeds are cultivated for 7” for “seeds are cultured for 7”
as §6
The nursery plants of the Nicotiana benthamiana having undergone the low-temperature stress treatment were cultivated for 3 days at 22° C., an illuminance of 4,000 lux, and a day length of 16 hours. Thereafter, the area of green leaf was quantified by Scanalyzer HTS (manufactured by LemnaTec GmbH). Moreover, the value of the control plot not treated with the compound that had not yet been subjected to the low-temperature stress treatment was measured in the same manner. A value of a relative leaf area was calculated based on the following equation (1), and if the value of a relative leaf area was 5 or greater, the compound was evaluated to have a mitigating effect. As a result of the evaluation, it was confirmed that when the plant was treated with one of the compounds 1, 8, 9, 13, 18, 19, 22, 23, 29, 32, 33, 34, 39, 40, 41, 43, 44, 51, 53, 54, 55, 56, 58, 60, 62, 63, 64, 65, 67, 69, 71, 73, 74, 75, 77, 79, 82, 83 and 86 of the present invention at 10 ppm, the value of a relative leaf area was 5 or greater, compared to the area of green leaf of the control plot not treated with compound. Accordingly, it was confirmed that the treatment using the compound of the present invention brings about a growth promotion effect.
as §7

Compound	change in vivo at 1 ppm [1] [%]	relative leaf area (% of untreated control) at 1 ppm (Nicotiana benthamiana [2]) [%]	change in vivo at 10 ppm [3] [%]	relative leaf area at 10 ppm (Nicotiana benthamiana [4]) [%]
COC(=O)c1nc2cc(C(F)(F)F)ccc2[nH]1 [Compound 21, methyl 5-(trifluoromethyl)benzimidazole-2-carboxylate]	> 5	≥ 5		
COC(=O)c1oc2ccccc2c1NS(C)(=O)=O [Compound 60]		≥ 5	> 5	≥ 5
COC(=O)c1oc2ccccc2c1N(C)C [Compound 58]		≥ 5		≥ 5
